Data published in patent US4103082A, “Aminocyclitol derivatives and process for producing the same” (priority 1975, dated 1978).
In brackets after ≈: the same amount, converted by molar mass.

Legend:
[1] = system: Staphylococcus aureus C73-10; experiment: antibacterial activity (Minimum Inhibitory Concentration); assay type: cell-based; settings: Staphylococcus aureus, C7310
Proteus species C73-23 = experiment: as above; assay type: cell-based
[2] = system: Staphylococcus aureus C73-21; experiment: as above; assay type: cell-based; settings: Staphylococcus aureus, C7321
[3] = system: Vibrio parahaemolyticus K-5; experiment: as above; assay type: cell-based; settings: Vibrio parahaemolyticus, K5
[4] = system: Staphylococcus albus PCI-1200A; experiment: as above; assay type: cell-based; settings: Staphylococcus, PCI1200A
E. coli C73-12 = experiment: as above; assay type: cell-based; settings: Escherichia coli, C7312
Proteus species C73-34 = experiment: as above; assay type: cell-based
[5] = system: Staphylococcus aureus Smith S-424; experiment: as above; assay type: cell-based; settings: Staphylococcus aureus, SMITHS424
[6] = system: Staphylococcus aureus C73-4; experiment: as above; assay type: cell-based; settings: Staphylococcus aureus, C734
[7] = system: Staphylococcus aureus No. 26; experiment: as above; assay type: cell-based; settings: Staphylococcus aureus, NO.26
[8] = system: Enterococcus species C73-17; experiment: as above; assay type: cell-based; settings: Enterococcus, C7317
Proteus morganii Kono = experiment: as above; assay type: cell-based; settings: Morganella morganii
E. coli C73-1 = experiment: as above; assay type: cell-based; settings: Escherichia coli, C731
[9] = system: Bacillus subtilis ATCC 6633; experiment: as above; assay type: cell-based; settings: Bacillus subtilis, ATCC6633
[10] = system: Vibrio parahaemolyticus K-3; experiment: as above; assay type: cell-based; settings: Vibrio parahaemolyticus, K3
Proteus species C73-25 = experiment: as above; assay type: cell-based
[11] = system: Bacillus anthracis No. 119; experiment: microbe, parasite or virus in culture; assay type: cell-based
Klebsiella pneumoniae = experiment: antibacterial activity (Minimum Inhibitory Concentration); assay type: cell-based
[12] = system: Staphylococcus aureus 209P JC-1; experiment: as above; assay type: cell-based; settings: Staphylococcus aureus, 209P
Proteus species C73-33 = experiment: as above; assay type: cell-based
[13] = system: Enterococcus species C73-33; experiment: as above; assay type: cell-based; settings: Enterococcus, C7333
[14] = system: Salmonella species C73-30; experiment: as above; assay type: cell-based; settings: C7330
E. coli C73-4 = experiment: as above; assay type: cell-based; settings: Escherichia coli, C734
[15] = system: Shigella dysenteriae Shigae; experiment: microbe, parasite or virus in culture; assay type: cell-based
[16] = system: Vibrio parahaemolyticus K-7; experiment: antibacterial activity (Minimum Inhibitory Concentration); assay type: cell-based; settings: Vibrio parahaemolyticus, K7
[17] = system: antibiotic-resistant microorganisms; settings: J. Antibiotics, 24 (10) 711, (1971); cited from earlier work
Pseudomonas 1007 = experiment: paper disk method, inhibitory zone diameter; assay type: cell-based; settings: Pseudomonas, 1007, read-out: inhibitory zone diameter
Mycobacterium 607 = experiment: paper disk method, inhibitory zone diameter; assay type: cell-based; settings: Mycobacterium, 607, read-out: inhibitory zone diameter
Klebsiella 6 = experiment: paper disk method, inhibitory zone diameter; assay type: cell-based; settings: Klebsiella, 6, read-out: inhibitory zone diameter
E. coli K-12 = experiment: paper disk method, inhibitory zone diameter; assay type: cell-based; settings: Escherichia coli, K12, read-out: inhibitory zone diameter
[18] = system: Staphylococcus aureus 6538P; experiment: paper disk method, inhibitory zone diameter; assay type: cell-based; settings: read-out: inhibitory zone diameter
Klebsiella 7 = experiment: paper disk method, inhibitory zone diameter; assay type: cell-based; settings: Klebsiella, 7, read-out: inhibitory zone diameter
[19] = system: E. coli HL-1629 (Kanamycin-resistant strain); experiment: microbe, parasite or virus in culture; assay type: cell-based; settings: Escherichia coli, read-out: inhibitory zone diameter
[20] = system: Bacillus subtilis ATCC 6633; experiment: paper disk method, inhibitory zone diameter; assay type: cell-based; settings: ATCC6633, read-out: inhibitory zone diameter

`NC[C@H]1O[C@H](O[C@H]2[C@H](O)[C@@H](O)[C@H](N)C[C@@H]2N)[C@H](N)[C@@H](O)[C@@H]1O` [Neomycin A, reference compound] gave an MIC [1] of 3.13 µg/mL (≈ 9.71 µM), an MIC (Proteus species C73-23) of 25 µg/mL (≈ 77.6 µM) and an MIC [2] of 0.78 µg/mL (≈ 2.42 µM). The MIC [3] was 50 µg/mL (≈ 155 µM), the MIC [4] was 0.78 µg/mL (≈ 2.42 µM) and the MIC (E. coli C73-12) was 12.5 µg/mL (≈ 38.8 µM). The MIC (Proteus species C73-34) was 25 µg/mL (≈ 77.6 µM), the MIC [5] was 1.56 µg/mL (≈ 4.84 µM) and the MIC [6] was 3.13 µg/mL (≈ 9.71 µM). It also gave an MIC [7] of 3.13 µg/mL (≈ 9.71 µM), an MIC [8] of 100 µg/mL (≈ 310 µM) and an MIC (Proteus morganii Kono) of 12.5 µg/mL (≈ 38.8 µM). For the same compound, the MIC (E. coli C73-1) was 25 µg/mL (≈ 77.6 µM), the MIC [9] was 1.56 µg/mL (≈ 4.84 µM) and the MIC [10] was 1.56 µg/mL (≈ 4.84 µM). For the same compound, the MIC (Proteus species C73-25) was 6.25 µg/mL (≈ 19.4 µM), the MIC [11] was 12.5 µg/mL (≈ 38.8 µM) and the MIC (Klebsiella pneumoniae) was 12.5 µg/mL (≈ 38.8 µM). For the same compound, the MIC [12] was 0.78 µg/mL (≈ 2.42 µM), the MIC (Proteus species C73-33) was 100 µg/mL (≈ 310 µM) and the MIC [13] was 12.5 µg/mL (≈ 38.8 µM). It also gave an MIC [14] of 25 µg/mL (≈ 77.6 µM), an MIC (E. coli C73-4) of 25 µg/mL (≈ 77.6 µM) and an MIC [15] of 12.5 µg/mL (≈ 38.8 µM). It also gave an MIC [16] of 50 µg/mL (≈ 155 µM).

For `NC[C@@H]1CC[C@@H](N)[C@@H](O[C@H]2[C@H](O)[C@@H](O)[C@H](N)C[C@@H]2N)O1` [3',4'-deoxyneamine], the “antimicrobial activities against antibiotic-resistant microorganisms” value [17] is given as “exhibits antimicrobial activities against various antibiotic-resistant microorganisms”.

`NC[C@H]1O[C@H](O[C@H]2[C@H](O)[C@@H](O)[C@H](N)C[C@@H]2N)[C@H](N)[C@@H](O)[C@@H]1O` [Neamine, neamine, reference compound] showed a zone of inhibition at 2000 µg/mL (Pseudomonas 1007) of 0 mm, a zone of inhibition at 62.5 µg/mL (Mycobacterium 607) of 0 mm and a zone of inhibition at 125 µg/mL (Mycobacterium 607) of 0 mm. The zone of inhibition at 250 µg/mL (Mycobacterium 607) was 14.8 mm, the zone of inhibition at 500 µg/mL (Mycobacterium 607) was 20.4 mm and the zone of inhibition at 1000 µg/mL (Mycobacterium 607) was 26.4 mm. The zone of inhibition at 2000 µg/mL (Mycobacterium 607) was 32.5 mm, the zone of inhibition at 2000 µg/mL (Klebsiella 6) was 0 mm and the zone of inhibition at 7.8 µg/mL (E. coli K-12) was 0 mm. For the same compound, the zone of inhibition at 15.6 µg/mL (E. coli K-12) was 0 mm, the zone of inhibition at 31.2 µg/mL (E. coli K-12) was 11.4 mm and the zone of inhibition at 62.5 µg/mL (E. coli K-12) was 14.3 mm. The zone of inhibition at 125 µg/mL (E. coli K-12) was 17.2 mm, the zone of inhibition at 250 µg/mL (E. coli K-12) was 20.4 mm and the zone of inhibition at 500 µg/mL (E. coli K-12) was 22.6 mm. For the same compound, the zone of inhibition at 1000 µg/mL (E. coli K-12) was 25.2 mm, the zone of inhibition at 2000 µg/mL (E. coli K-12) was 27.4 mm and the zone of inhibition at 7.8 µg/mL [18] was 0 mm. The zone of inhibition at 15.6 µg/mL [18] was 0 mm, the zone of inhibition at 31.2 µg/mL [18] was 0 mm and the zone of inhibition at 62.5 µg/mL [18] was 10 mm. It also gave a zone of inhibition at 125 µg/mL [18] of 13 mm, a zone of inhibition at 250 µg/mL [18] of 15.3 mm and a zone of inhibition at 500 µg/mL [18] of 18.3 mm. For the same compound, the zone of inhibition at 1000 µg/mL [18] was 20.7 mm, the zone of inhibition at 2000 µg/mL [18] was 22.8 mm and the zone of inhibition at 2000 µg/mL (Klebsiella 7) was 0 mm. The zone of inhibition at 1000 µg/mL [19] was 0 mm, the zone of inhibition at 2000 µg/mL [19] was 12.3 mm and the zone of inhibition at 7.8 µg/mL [20] was 11.5 mm. The zone of inhibition at 15.6 µg/mL [20] was 14 mm, the zone of inhibition at 31.2 µg/mL [20] was 17 mm and the zone of inhibition at 62.5 µg/mL [20] was 19.9 mm. The zone of inhibition at 125 µg/mL [20] was 23 mm, the zone of inhibition at 250 µg/mL [20] was 25 mm and the zone of inhibition at 500 µg/mL [20] was 28.7 mm. The zone of inhibition at 1000 µg/mL [20] was 31 mm and the zone of inhibition at 2000 µg/mL [20] was 33.5 mm.
